The target of test [1] is ACE2 in human CD34+ cells (Homo sapiens, UniProt Q9BYF1). In words: ACE2 activity assay in human CD34+ cell lysates. The following applies: for Imax at ACE2 in human CD34+ cells: cell lysate, 4 h, n=6.
Test [2] concerns the target ACE2 in murine heart (Mus musculus, UniProt Q8R0I0). In words: ACE2 activity assay in murine heart homogenate. The test is classed as biochemical.
In test [3] the target is Recombinant Human ACE (rhACE) (Homo sapiens, UniProt P12821). In words: ACE activity assay with recombinant human ACE. The test is classed as biochemical.
Recombinant Human ACE (rhACE), sequence (P12821 30-1306): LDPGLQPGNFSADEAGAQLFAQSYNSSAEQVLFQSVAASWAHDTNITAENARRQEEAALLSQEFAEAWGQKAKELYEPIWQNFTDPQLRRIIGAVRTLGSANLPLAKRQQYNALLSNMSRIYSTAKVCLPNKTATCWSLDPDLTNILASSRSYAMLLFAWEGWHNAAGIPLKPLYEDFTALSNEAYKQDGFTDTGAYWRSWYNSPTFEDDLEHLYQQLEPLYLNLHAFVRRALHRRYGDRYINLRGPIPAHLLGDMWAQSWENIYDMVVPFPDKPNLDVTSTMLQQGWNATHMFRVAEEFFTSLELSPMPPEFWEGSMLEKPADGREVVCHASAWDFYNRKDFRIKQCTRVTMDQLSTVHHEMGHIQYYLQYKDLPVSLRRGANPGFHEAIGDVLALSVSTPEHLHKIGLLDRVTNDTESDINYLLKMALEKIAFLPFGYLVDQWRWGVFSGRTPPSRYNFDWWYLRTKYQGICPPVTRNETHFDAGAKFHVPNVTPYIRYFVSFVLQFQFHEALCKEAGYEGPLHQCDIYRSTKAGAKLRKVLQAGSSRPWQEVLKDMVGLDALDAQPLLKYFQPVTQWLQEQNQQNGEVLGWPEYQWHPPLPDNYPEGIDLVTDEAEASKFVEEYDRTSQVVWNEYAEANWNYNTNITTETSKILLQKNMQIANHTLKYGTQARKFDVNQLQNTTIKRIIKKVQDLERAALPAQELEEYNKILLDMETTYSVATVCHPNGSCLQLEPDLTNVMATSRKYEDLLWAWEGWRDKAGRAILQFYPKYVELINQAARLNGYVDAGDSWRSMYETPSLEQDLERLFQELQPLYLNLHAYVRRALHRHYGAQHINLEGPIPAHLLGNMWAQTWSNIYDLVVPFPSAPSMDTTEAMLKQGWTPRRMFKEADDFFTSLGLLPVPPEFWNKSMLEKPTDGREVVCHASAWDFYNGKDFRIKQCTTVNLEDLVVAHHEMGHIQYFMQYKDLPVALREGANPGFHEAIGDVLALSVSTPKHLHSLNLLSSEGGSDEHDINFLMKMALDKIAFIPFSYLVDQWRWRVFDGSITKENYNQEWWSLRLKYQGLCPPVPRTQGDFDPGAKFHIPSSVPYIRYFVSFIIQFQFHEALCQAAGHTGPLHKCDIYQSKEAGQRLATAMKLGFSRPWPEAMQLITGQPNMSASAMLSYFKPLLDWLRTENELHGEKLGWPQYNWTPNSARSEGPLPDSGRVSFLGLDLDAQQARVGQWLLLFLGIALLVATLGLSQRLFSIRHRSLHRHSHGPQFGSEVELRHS
Test [4] concerns the target Human MNC ACE2 (Homo sapiens, UniProt Q9BYF1). In words: ACE2 activity assay in human mononuclear cell lysates. The conditions noted are these: for Imax at ACE2 in human MNCs: cell lysate 10 μg protein, 4 h.
Test [5] concerns the target Human MNC ACE (Homo sapiens, UniProt P12821). Put plainly: ACE activity assay in human mononuclear cell lysates. The following applies: cell lysate 10 μg protein, 4 h.
The target of test [6] is T1, ACE in murine heart (Mus musculus, UniProt P09470).
T1 sequence (P09470 35-1312): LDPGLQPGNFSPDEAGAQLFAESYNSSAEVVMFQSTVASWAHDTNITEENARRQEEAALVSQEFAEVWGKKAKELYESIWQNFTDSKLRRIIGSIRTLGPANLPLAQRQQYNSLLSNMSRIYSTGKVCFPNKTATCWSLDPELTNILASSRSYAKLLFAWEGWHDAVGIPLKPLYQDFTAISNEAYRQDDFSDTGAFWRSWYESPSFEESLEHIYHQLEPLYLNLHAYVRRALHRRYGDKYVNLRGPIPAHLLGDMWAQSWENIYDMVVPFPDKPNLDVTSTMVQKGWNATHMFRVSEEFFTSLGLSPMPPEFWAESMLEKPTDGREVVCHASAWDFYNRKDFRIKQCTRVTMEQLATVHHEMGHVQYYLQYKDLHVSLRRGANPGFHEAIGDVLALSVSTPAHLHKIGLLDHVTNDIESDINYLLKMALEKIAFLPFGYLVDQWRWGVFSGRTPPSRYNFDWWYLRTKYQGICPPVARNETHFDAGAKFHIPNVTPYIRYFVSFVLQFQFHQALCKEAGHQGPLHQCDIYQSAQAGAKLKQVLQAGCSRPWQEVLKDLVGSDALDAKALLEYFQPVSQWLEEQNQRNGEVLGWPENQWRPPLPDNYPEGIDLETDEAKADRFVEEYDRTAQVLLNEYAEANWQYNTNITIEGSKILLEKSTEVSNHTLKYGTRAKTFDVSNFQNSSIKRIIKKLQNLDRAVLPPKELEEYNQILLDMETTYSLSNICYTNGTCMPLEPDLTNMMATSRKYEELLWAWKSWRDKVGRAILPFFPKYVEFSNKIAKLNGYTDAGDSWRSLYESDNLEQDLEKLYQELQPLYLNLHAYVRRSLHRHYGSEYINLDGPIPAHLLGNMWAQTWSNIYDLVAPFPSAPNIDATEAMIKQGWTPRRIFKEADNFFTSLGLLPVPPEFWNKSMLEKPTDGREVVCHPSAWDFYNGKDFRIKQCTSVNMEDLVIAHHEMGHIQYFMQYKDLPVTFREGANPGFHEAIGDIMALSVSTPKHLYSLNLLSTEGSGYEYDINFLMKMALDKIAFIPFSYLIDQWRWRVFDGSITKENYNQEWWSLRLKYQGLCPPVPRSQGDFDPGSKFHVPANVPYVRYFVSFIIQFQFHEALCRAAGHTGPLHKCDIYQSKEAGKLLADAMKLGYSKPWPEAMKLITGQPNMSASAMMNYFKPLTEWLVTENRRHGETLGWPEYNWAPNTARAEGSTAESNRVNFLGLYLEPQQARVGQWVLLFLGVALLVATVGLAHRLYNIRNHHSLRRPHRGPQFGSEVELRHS
Put plainly: ACE activity assay in murine heart homogenate. The test is classed as biochemical.

In test [7] the target is ACE in human CD34+ cells (Homo sapiens, UniProt P12821). Put plainly: ACE activity assay in human CD34+ cell lysates.
ACE in human CD34+ cells, sequence (P12821 30-1306): as the sequence (P12821 30-1306) above
In test [8] the target is Recombinant Human ACE2 (rhACE2) (Homo sapiens, UniProt Q9BYF1). Put plainly: ACE2 activity assay with recombinant human ACE2. The test is classed as biochemical.
Recombinant Human ACE2 (rhACE2), sequence (Q9BYF1 18-805): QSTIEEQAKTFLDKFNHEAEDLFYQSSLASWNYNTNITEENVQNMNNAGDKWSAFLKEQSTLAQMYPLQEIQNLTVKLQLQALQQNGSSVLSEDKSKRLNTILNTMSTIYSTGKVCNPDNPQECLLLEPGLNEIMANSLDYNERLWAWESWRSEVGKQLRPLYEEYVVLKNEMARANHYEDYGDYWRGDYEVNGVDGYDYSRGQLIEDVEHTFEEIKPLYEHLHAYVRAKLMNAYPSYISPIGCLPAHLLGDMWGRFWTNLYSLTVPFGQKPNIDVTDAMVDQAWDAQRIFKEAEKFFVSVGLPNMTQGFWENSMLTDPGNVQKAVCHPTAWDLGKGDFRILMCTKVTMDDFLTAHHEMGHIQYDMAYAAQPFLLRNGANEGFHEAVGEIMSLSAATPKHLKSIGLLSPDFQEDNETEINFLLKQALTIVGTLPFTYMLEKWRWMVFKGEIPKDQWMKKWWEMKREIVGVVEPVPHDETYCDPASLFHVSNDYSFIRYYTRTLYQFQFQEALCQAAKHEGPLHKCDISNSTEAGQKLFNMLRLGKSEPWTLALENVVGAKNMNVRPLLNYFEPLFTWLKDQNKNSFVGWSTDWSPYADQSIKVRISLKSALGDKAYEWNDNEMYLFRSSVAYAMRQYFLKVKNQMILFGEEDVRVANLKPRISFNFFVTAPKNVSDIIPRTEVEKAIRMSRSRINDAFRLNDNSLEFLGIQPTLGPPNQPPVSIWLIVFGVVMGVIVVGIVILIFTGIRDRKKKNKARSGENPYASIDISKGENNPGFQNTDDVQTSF
Test [9] addresses T2, Murine MNC ACE (Mus musculus, UniProt P09470).
T2 sequence (P09470 35-1312): T1 sequence (P09470 35-1312)
In words: ACE activity assay in murine mononuclear cell lysates.

In test [10] the target is Murine MNC ACE2 (Mus musculus, UniProt Q8R0I0). Put plainly: ACE2 activity assay in murine mononuclear cell lysates.
Murine MNC ACE2, sequence (Q8R0I0 18-805): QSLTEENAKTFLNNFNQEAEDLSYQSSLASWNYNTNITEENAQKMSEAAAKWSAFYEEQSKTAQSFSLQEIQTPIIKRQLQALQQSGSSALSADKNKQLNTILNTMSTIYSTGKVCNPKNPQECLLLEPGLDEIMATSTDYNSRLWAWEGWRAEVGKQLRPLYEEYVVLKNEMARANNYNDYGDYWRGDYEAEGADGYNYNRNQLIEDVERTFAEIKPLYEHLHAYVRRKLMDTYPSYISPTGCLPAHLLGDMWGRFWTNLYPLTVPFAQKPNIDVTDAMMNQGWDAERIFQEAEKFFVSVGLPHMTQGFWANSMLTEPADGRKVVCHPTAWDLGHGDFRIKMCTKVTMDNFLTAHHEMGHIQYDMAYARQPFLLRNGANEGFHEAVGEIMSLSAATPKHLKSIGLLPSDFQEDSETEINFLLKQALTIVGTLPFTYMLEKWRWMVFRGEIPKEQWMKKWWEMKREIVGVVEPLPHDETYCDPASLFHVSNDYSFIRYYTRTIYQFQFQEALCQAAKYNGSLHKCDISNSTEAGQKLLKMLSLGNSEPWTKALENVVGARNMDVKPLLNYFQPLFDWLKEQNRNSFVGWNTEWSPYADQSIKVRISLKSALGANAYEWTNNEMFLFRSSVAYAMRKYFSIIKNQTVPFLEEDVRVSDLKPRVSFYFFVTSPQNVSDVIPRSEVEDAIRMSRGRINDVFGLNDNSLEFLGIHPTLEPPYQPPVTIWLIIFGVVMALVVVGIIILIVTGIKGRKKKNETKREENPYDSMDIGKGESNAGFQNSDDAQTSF
The mark [11] stands for this setting: recombinant enzyme, 50 μM substrate, pH 6.5, 1 h.

ACE2 in human CD34+ cells, sequence (Q9BYF1 18-805): as the sequence (Q9BYF1 18-805) above
Human MNC ACE2, sequence (Q9BYF1 18-805): as above
Human MNC ACE, sequence (P12821 30-1306): as the sequence (P12821 30-1306) above

As usually defined, the IC50 is the midpoint of a concentration-inhibition curve. For orientation: inhibition means the percentage by which the read-out fell short of the control. By Ki is commonly meant a measure of affinity in units of concentration, obtained from inhibition or displacement. Consider `CC(C)C[C@H](N[C@@H](Cc1cncn1Cc1cc(Cl)cc(Cl)c1)C(=O)O)C(=O)O` [isomer B, (2S)-2-[[(2S)-3-[3-[(3,5-dichlorophenyl)methyl]imidazol-4-yl]-1-hydroxy-1-oxopropan-2-yl]amino]-4-methylpentanoic acid], for which the half-inhibitory concentration (IC50) in test [1] is 316 nM; in test [2] it was 251 nM; in test [4] (IC50, Human ACE2 (human MNCs)), 500 ± 30 nM; in test [6], 63100 nM; in test [7], 12600 nM; in [8] (IC50, Recombinant Human ACE2) it was 10 ± 6 nM. The concentration for half-maximal inhibition (IC50) was 20000 nM in test [9] and 79.4 nM in [10] (pIC50 at ACE2 in murine MNCs, cell lysate, 4 h). The “Imax at ACE2 in human CD34+ cells” value came to 38±4% in test [1] and 38% in test [1] (listed as MLN-4760-B). In [3] (read-out: inhibition of rhACE activity), the inhibition at 10 µM came out at 43%. Besides, the “Imax at rhACE” value in test [3] (setting [11]) is given as 46±1%. For the same compound, the Ki was 200 ± 10 nM in [4], 40 ± 5 nM in [8] and 2100 ± 200 nM in test [10]. In addition, the figures for the “Imax at ACE2 in human MNCs” value in test [4] and in [4] (listed as MLN-4760-B) were 63±2% and 63%, respectively. Further, the “Imax at ACE in human MNCs” value in [5] came out at 34±1%. Moreover, the “Imax at ACE in human CD34+ cells” value in [7] (cell lysate, 4 h, n=6) is listed as 19±2%. Further, the “Maximum inhibition (Imax) of rhACE2” value in test [8] (setting [11]) was determined as 80±3%.
